In patent US11951094B2, “TLR2 modulator compounds, pharmaceutical compositions and uses thereof” (Axial Therapeutics, Inc., priority 2020, dated 2024):
Counter-ions that a name gives are not always drawn.

Key:
Type in all cases: cell-based
TLR2 [1] = target: T1, TLR2 (Homo sapiens, UniProt O60603); test: TLR2 in vitro functional assay, cytokine release from human monocytic cell line THP-1; settings: THP-1 human monocytic cell line, average of all runs
Experimental: (§1) Cells of the immune system respond to TLR agonists in part by secreting cytokines. Functional assays for TLR2 agonists measure cytokine release from purified immune cells or immortalized cell lines derived from immune cells. Cytokine release is measured by standard ELISA approaches or multiplexed analysis using the Meso Scale Discovery (MSD) platform.
Following assay measurements utilizing either HEK-Blue detection or cytokine release, all data is analyzed with the GraphPad Prism8 statistical package to determine EC50, binding and activity metrics for the TLR2 modulators. […]
(§2) Numerous cell lines derived from various cell types can respond to TLR2 agonists with stereotyped cytokine and chemokine secretion. In particular, cell lines derived from macrophages respond robustly to TLR2 agonists by secreting a wide array of cytokines, including (but not limited to) TNF-alpha, IL-1, IL-10 and IL-12. The human monocytic cell line THP-1, the mouse macrophage line RAW-264.7, and the rat macrophage line NR8383 were used. For each assay, the respective cell lines were plated into 96-well plates overnight and then treated the following day with various TLR2-engaging compounds at varying concentrations. The next day, supernatants were collected and assayed by multiplex immunodetection for cytokines released (MSD detection kits for respective species).
(§3) Data provided in Table 5 is generated using protocols described in Example 45 and 46.

TLR2 [2] = target: T1, TLR2; test: TLR2 agonist screening assay, HEK-Blue TLR2 reporter cell line (NF-kB-driven SEAP, absorbance at 600 nm); design: host or cells: HEK-293 (HEK-Blue TLR2 reporter cell line); settings: HEK-Blue TLR2 reporter cells, agonist mode
Summary of the method: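 Read-out: SEAP colour change, A600, after overnight agonist exposure. Cells: HEK-293 overexpressing TLR2, NF-kB-SEAP reporter, ~40,000/well, plated 16-24 h prior.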

TLR2 [3] = target: T2, TLR2 (Mus musculus, UniProt Q9QUN7); test: TLR2 functional assay, cytokine release from RAW 264.7 mouse macrophage cell line; settings: average of all runs
T2 construct: endogenous in cells; host or cells: RAW 264.7
Experimental: as §1
Purified primary human peripheral blood mononuclear cells or RAW 264.7 mouse macrophage cell line cells are plated at approximately 40,000 cells per well. Cells are treated with agonist compounds and assays 6-24 hours post-treatment for cytokines released into the cell culture media.
Following assay measurements utilizing either HEK-Blue detection or cytokine release, all data is analyzed with the GraphPad Prism8 statistical package to determine EC50, binding and activity metrics for the TLR2 modulators.
as §2, §3

T1 sequence (O60603 21-784): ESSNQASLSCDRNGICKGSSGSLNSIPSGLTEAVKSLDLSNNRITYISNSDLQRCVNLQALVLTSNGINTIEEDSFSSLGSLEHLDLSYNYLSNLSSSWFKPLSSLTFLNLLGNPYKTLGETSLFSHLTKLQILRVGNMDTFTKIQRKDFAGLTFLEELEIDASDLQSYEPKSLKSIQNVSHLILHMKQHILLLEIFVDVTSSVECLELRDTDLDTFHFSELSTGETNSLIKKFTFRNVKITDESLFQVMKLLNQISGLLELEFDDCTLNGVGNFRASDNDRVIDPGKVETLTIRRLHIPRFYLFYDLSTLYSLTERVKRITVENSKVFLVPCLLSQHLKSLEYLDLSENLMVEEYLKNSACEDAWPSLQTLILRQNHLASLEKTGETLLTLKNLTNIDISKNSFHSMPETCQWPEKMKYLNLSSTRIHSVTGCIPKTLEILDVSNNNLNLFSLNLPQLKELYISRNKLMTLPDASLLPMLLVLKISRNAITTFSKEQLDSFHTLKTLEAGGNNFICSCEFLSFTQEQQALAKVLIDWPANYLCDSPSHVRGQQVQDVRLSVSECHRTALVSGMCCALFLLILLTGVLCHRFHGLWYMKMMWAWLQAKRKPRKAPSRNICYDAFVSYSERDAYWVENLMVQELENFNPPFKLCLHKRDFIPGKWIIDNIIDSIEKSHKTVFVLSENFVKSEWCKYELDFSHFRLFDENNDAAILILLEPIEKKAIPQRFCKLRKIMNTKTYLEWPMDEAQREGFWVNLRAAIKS
T2 sequence (Q9QUN7 25-784): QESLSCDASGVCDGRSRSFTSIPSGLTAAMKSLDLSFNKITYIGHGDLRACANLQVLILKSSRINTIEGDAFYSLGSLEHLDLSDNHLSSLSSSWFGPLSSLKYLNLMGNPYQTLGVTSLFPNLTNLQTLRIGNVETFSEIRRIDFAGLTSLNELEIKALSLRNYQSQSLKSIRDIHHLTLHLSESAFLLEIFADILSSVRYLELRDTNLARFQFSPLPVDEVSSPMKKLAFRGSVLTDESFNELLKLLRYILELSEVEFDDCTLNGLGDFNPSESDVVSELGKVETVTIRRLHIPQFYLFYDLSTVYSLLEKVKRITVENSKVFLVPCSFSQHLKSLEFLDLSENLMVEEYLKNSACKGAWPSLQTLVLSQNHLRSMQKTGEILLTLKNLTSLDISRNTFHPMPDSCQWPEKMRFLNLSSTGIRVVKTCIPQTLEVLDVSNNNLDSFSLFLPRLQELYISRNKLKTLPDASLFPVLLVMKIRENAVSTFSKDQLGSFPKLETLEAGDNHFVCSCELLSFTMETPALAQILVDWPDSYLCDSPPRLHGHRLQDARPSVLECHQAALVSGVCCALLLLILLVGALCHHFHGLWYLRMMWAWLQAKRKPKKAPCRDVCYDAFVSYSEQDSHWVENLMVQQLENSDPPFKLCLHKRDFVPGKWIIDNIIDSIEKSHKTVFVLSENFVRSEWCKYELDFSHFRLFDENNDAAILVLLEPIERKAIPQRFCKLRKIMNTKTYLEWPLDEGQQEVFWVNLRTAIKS

EC50 (TLR2 [1]) | EC50 (TLR2 [2]; average of all runs (Table 4)) | EC50 (TLR2 [2]; average of all runs (Table 3)) | EC50 (TLR2 [3]) | SMILES
0.1 to 50 nM | – | 0.1 to 50 nM | – | CCCCCCCO[C@@H]1CN(C(=O)c2ccc(C(=O)N3C[C@@H](C(=O)N[C@H]4C[C@@H]4c4ccccc4)[C@H](C(=O)N[C@H]4C[C@@H]4c4ccccc4)C3)cc2)C[C@H]1C(=O)NCCCCCC (single isomer, unassigned) [Compound 072, (3S,4S)-1-(4-((3S*,4R*)-3-(heptyloxy)-4-(hexylcarbamoyl)pyrrolidine-1-carbonyl)benzoyl)-N3,N4-bis((1S,2R)-2-phenylcyclopropyl)pyrrolidine-3,4-dicarboxamide]
0.1 to 50 nM | – | 0.1 to 50 nM | – | CCCCCCCCCCCCCCNC(=O)[C@H]1CN(C(=O)c2ccc(C(=O)N3C[C@@H](C(=O)N[C@H]4C[C@@H]4c4ccccc4)[C@H](C(=O)N[C@H]4C[C@@H]4c4ccccc4)C3)cc2)CCN1C [Compound 059, (3S,4S)-1-(4-((R)-4-methyl-3-(tetradecylcarbamoyl)piperazine-1-carbonyl)benzoyl)-N3,N4-bis((1S,2R)-2-phenylcyclopropyl)pyrrolidine-3,4-dicarboxamide formate]
51 to 350 nM | – | 51 to 350 nM | – | CCCCCCCCCCCCCCC(=O)N[C@H]1CCN(C(=O)c2ccc(C(=O)N3C[C@@H](C(=O)N[C@H]4C[C@@H]4c4ccccc4)[C@H](C(=O)N[C@H]4C[C@@H]4c4ccccc4)C3)cc2)C1 [Compound 026, (3S,4S)-1-(4-((S)-3-pentadecanamidopyrrolidine-1-carbonyl)benzoyl)-N3,N4-bis((1S,2R)-2-phenylcyclopropyl)pyrrolidine-3,4-dicarboxamide]
– | 0.1 to 50 nM | – | > 1000 nM | CCCCCCNC(=O)[C@H](CNC(=O)c1ccc(C(=O)N2C[C@@H](C(=O)N[C@H]3C[C@@H]3c3ccccc3)[C@H](C(=O)N[C@H]3C[C@@H]3c3ccccc3)C2)cc1)NC(=O)Cc1ccc(F)cc1 [Compound 138, (3S,4S)-1-(4-(((S)-2-(2-(4-fluorophenyl)acetamido)-3-(hexylamino)-3-oxopropyl)carbamoyl)benzoyl)-N3,N4-bis((1S,2R)-2-phenylcyclopropyl) pyrrolidine-3,4-dicarboxamide]
– | 0.1 to 50 nM | – | 351 to 1000 nM | CCCCCCCCCCCCCNC(=O)N[C@H]1CN(C(=O)c2ccc(C(=O)N3C[C@@H](C(=O)N[C@H]4C[C@@H]4c4ccccc4)[C@H](C(=O)N[C@H]4C[C@@H]4c4ccccc4)C3)cc2)C[C@@H]1OC [Compound 134, (3S,4S)-1-(4-((3S,4S)-3-methoxy-4-(3-tridecylureido)pyrrolidine-1-carbonyl)benzoyl)-N3,N4-bis((1S,2R)-2-phenylcyclopropyl)pyrrolidine-3,4-dicarboxamide]
– | 0.1 to 50 nM | – | 51 to 350 nM | CCCCCCNC(=O)[C@H](CNC(=O)c1ccc(C(=O)N2C[C@@H](C(=O)N[C@H]3C[C@@H]3c3ccccc3)[C@H](C(=O)N[C@H]3C[C@@H]3c3ccccc3)C2)cc1)NC(=O)N[C@H]1C[C@@H]1c1ccccc1 [Compound 222, (3S,4S)-1-(4-(((S)-3-(hexylamino)-3-oxo-2-(3-((1S,2R)-2-phenylcyclopropyl)ureido)propyl)carbamoyl)benzoyl)-N3,N4-bis((1S,2R)-2-phenylcyclopropyl)pyrrolidine-3,4-dicarboxamide]

The remaining lines, values behind:

SMILES | EC50 (TLR2 [1]) | EC50 (TLR2 [2]; average of all runs (Table 4)) | EC50 (TLR2 [2]; average of all runs (Table 3)) | EC50 (TLR2 [3])
CCCCCCCCCCCCCCNC(=O)[C@@H]1CCCN(C(=O)c2ccc(C(=O)N3C[C@@H](C(=O)N[C@H]4C[C@@H]4c4ccccc4)[C@H](C(=O)N[C@H]4C[C@@H]4c4ccccc4)C3)cc2)C1 [Compound 102, (3S,4S)—N3,N4-bis((1S,2R)-2-phenylcyclopropyl)-1-(4-((R)-3-(tetradecylcarbamoyl)piperidine-1-carbonyl)benzoyl) pyrrolidine-3,4-dicarboxamide] | 0.1 to 50 nM | 0.1 to 50 nM | – | –
CCCCCCCC(=O)N1CCN(C(=O)c2ccc(C(=O)N3C[C@@H](C(=O)N[C@H]4C[C@@H]4c4ccccc4)[C@H](C(=O)N[C@H]4C[C@@H]4c4ccccc4)C3)cc2)C[C@@H]1C(=O)NCCCCCC [Compound 032, (3S,4S)-1-(4-((R)-3-(hexylcarbamoyl)-4-octanoylpiperazine-1-carbonyl)benzoyl)-N3,N4-bis((1S,2R)-2-phenylcyclopropyl)pyrrolidine-3,4-dicarboxamide] | 0.1 to 50 nM | – | 0.1 to 50 nM | –
CCCCCCCCCCCCCCNC(=O)[C@@H]1CN(C(=O)c2ccc(C(=O)N3C[C@@H](C(=O)N[C@H]4C[C@@H]4c4ccccc4)[C@H](C(=O)N[C@H]4C[C@@H]4c4ccccc4)C3)cc2)C[C@@H]1O (single isomer, unassigned) [Compound 044, (3S,4S)-1-(4-((3R*,4R*)-3-hydroxy-4-(tetradecylcarbamoyl)pyrrolidine-1-carbonyl)benzoyl)-N3,N4-bis((1S,2R)-2-phenylcyclopropyl)pyrrolidine-3,4-dicarboxamide] | 0.1 to 50 nM | – | 0.1 to 50 nM | –
CCCCCCNC(=O)[C@H](CNC(=O)c1ccc(C(=O)N2C[C@@H](C(=O)N[C@H]3C[C@@H]3c3ccccc3)[C@H](C(=O)N[C@H]3C[C@@H]3c3ccccc3)C2)cc1)NC(=O)CCCCCC [Compound 025, (3S,4S)-1-(4-(((S)-2-heptanamido-3-(hexylamino)-3-oxopropyl)carbamoyl)benzoyl)-N3,N4-bis((1S,2R)-2-phenylcyclopropyl)pyrrolidine-3,4-dicarboxamide] | 0.1 to 50 nM | – | 0.1 to 50 nM | –
CCCCCCCCCCCCCCNC(=O)[C@H]1CN(C(=O)c2ccc(C(=O)N3C[C@@H](C(=O)N[C@H]4C[C@@H]4c4ccccc4)[C@H](C(=O)N[C@H]4C[C@@H]4c4ccccc4)C3)cc2)C[C@@H]1OC [Compound 110, (3S,4S)-1-(4-((3R,4S)-3-methoxy-4-(tetradecylcarbamoyl)pyrrolidine-1-carbonyl)benzoyl)-N3,N4-bis((1S,2R)-2-phenylcyclopropyl)pyrrolidine-3,4-dicarboxamide] | 0.1 to 50 nM | 0.1 to 50 nM | – | –
CCCCCCCCN1C(=O)CN(C(=O)c2ccc(C(=O)N3C[C@@H](C(=O)N[C@H]4C[C@@H]4c4ccccc4)[C@H](C(=O)N[C@H]4C[C@@H]4c4ccccc4)C3)cc2)C[C@@H]1C(=O)NCCCCCC [Compound 075, (3S,4S)-1-(4-((R)-3-(hexylcarbamoyl)-4-octyl-5-oxopiperazine-1-carbonyl)benzoyl)-N3,N4-bis((1S,2R)-2-phenylcyclopropyl)pyrrolidine-3,4-dicarboxamide] | 0.1 to 50 nM | – | 51 to 350 nM | –
CCCCCCCNC(=O)[C@@H]1CN(C(=O)c2ccc(C(=O)N3C[C@@H](C(=O)N[C@H]4C[C@@H]4c4ccccc4)[C@H](C(=O)N[C@H]4C[C@@H]4c4ccccc4)C3)cc2)C[C@@H]1OCCCCCCC (relative stereo) [Compound 063, (3S,4S)-1-(4-((3R*,4R*)-3-(heptylcarbamoyl)-4-(heptyloxy)pyrrolidine-1-carbonyl)benzoyl)-N3,N4-bis((1S,2R)-2-phenylcyclopropyl)pyrrolidine-3,4-dicarboxamide] | 0.1 to 50 nM | – | 351 to 1000 nM | –
CCCCCCCCCCCNC(=O)N[C@H]1CN(C(c2ccc(C(=O)N3C[C@@H](C(=O)N[C@H]4C[C@@H]4c4ccccc4)[C@H](C(=O)N[C@H]4C[C@@H]4c4ccccc4)C3)cc2)C(F)(F)F)C[C@@H]1OC (single isomer, unassigned) [Compound 231, (3S,4S)—N3,N4-bis((1S,2R)-2-phenylcyclopropyl)-1-(4-((S*)-2,2,2-trifluoro-1-((3S,4S)-3-methoxy-4-(3-undecylureido)pyrrolidin-1-yl)ethyl)benzoyl)pyrrolidine-3,4-dicarboxamide] | – | 0.1 to 50 nM | – | 51 to 350 nM
